Source: patent US20210088529A1, “USE OF QUINALDINE RED AND DERIVATIVES THEREOF IN PREPARATION OF KIT FOR DETECTING AMYLOID FIBRILS” (Jilin University, priority 2019, published 2021)

Key:
bovine insulin fibrils [1] = molecular target: T1, bovine insulin fibrils (Bos taurus, UniProt P01317); experiment: Fluorescence response (identification) of bovine insulin fibrils by the dye; assay type: binding; details: for identification effect on bovine insulin fibrils (fluorescence intensity): dye 0.2 mM, dye-insulin 0.025 mM, dye-insulin fibril 0.025 mM, FIG. 3A / FIG. 7; for identification of bovine insulin fibril (fluorescence intensity, dye comparison): 0.05 ml dye + 0.05 ml fibrils, diluted with PBS to 1 ml
T1 sequence (P01317 25-54 limits assumed): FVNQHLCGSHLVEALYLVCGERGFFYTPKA
T1 sequence (P01317 85-105 limits assumed): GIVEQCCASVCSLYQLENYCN
Protocol: 2) The bovine insulin fibrils were diluted with PBS to 0 μm, 1 μm, 3 μm, 5 μm, 10 μm, 20 μm and 30 μm respectively. Then the diluted samples were each added with 0.05 mL of […] (1 mM) solution, and tested in a fluorescence spectrometer for the fluorescence intensity (λex=440 nm). […] The results are shown in FIG. 1, where FIG. 1-A was the detection limit of QR on the bovine insulin fibrils; and FIG. 1-B was a linear interval for QR identification of the bovine insulin fibrils.
QR (0.2 mM), QR-insulin (0.025 mM) and QR-insulin fibril (0.025 mM) were determined for fluorescence intensities respectively.
(§1) 0.05 ml of each of QR, ThT, ThS and NR solutions was taken, then added with 0.05 ml of the bovine insulin fibrils, diluted with 0.9 ml of PBS to 1 ml, and then determined for the fluorescence intensity.
The fluorescence intensities of 4-(4-dimethylaminostyryl)quinoline (0.2 mM), 4-(4-dimethylaminostyryl)quinoline-insulin (0.025 mM) and 4-(4-dimethylaminostyryl)quinoline-insulin fibrils (0.025 mM) were determined respectively.

insulin fibril = insulin fibril (Bos taurus, UniProt P01317); experiment: Photobleaching experiment under ultraviolet light (365 nm); assay type: physicochemical, bovine; details: UV 365 nm, insulin fibril 0.025 mM, dyes 0.05 mm, measured every 30 minutes; FIG. 6
insulin fibril, sequence (P01317 25-54 limits assumed): as the sequence (P01317 25-54 limits assumed) above
Protocol: A photobleaching experiment was carried out under ultraviolet light (365 nm). An insulin fibril (0.025 mM) was mixed with QR, ThT, ThS and NR respectively, with the concentrations of all dyes being 0.05 mm. The mixtures were placed under an ultraviolet lamp (365 nm) and measured for fluorescence every 30 minutes.

bovine insulin [2] = molecular target: T2, bovine insulin (Bos taurus, UniProt P01317); experiment: Raman (SERS) study of the manner of binding between QR and bovine insulin; details: SERS on silver sol, 532 nm, QR 0.01 mM, bovine insulin 0.01 mM; FIG. 2
T2 sequence (P01317 25-54 limits assumed): as above
Protocol: The manner of binding between QR and the bovine insulin was studied by using a Raman spectrometer with an excitation line of a laser model of 532 nm. First, a silver sol was synthesized as a SERS (surface-enhancement raman scattering) substrate. The synthesized silver nanoparticles were respectively added with the bovine insulin (0.01 mM), QR (0.01 mM) and a mixed sample of them, for detection.

lysozyme fibrils = lysozyme fibrils (Gallus gallus, UniProt P00698); experiment: Fluorescence identification of lysozyme fibrils; assay type: binding; details: lysozyme 0.1 mM fibrillated at 65° C. for 180 min; FIG. 3C
lysozyme fibrils, sequence (P00698 19-147): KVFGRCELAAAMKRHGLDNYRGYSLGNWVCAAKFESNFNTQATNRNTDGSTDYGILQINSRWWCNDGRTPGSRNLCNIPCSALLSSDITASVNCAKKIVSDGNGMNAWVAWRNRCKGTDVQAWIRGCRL
Protocol: Formulation of a glycine/NaCl buffer solution: the pH value of the glycine/NaCl aqueous solution was adjusted to 2.0 with HCl, where the concentration of sodium chloride was 80 mM and the concentration of glycine was 70 mM.
The lysozyme (0.1 mM) was dissolved in a glycine/NaCl buffer solution for fibrillation at 65° C. under magnetic stirring at a rotation rate of 220 rmp for 180 min. The fluorescence intensities of QR, QR-lysozyme and QR-lysozyme fibrils were determined respectively.

bovine insulin [3] = molecular target: T2, bovine insulin; experiment: Isothermal titration calorimetry (ITC) of dyes with bovine insulin; assay type: binding; details: 25° C., insulin 0.25 mM, dyes 0.01 mM, FIG. 4
Protocol: Isothermal titration calorimetry (ITC): the bovine insulin was diluted to a final concentration of 0.25 mM, the QR, ThT, ThS, NR were each diluted to a final concentration of 0.01 mM, and then the aforementioned dyes were titrated with the bovine insulin at 25° C., where the dye was added dropwise into a sample chamber containing a solution of the bovine insulin through an automatically-controlled rotary syringe. At the same time, a blank test was carried out, where dye solutions with equal concentration and equal volume were added dropwise into ultra-pure water, and dilution heat was deducted to obtain a binding constant.

lysozyme amyloid fibrils = lysozyme amyloid fibrils (Gallus gallus, UniProt P00698); experiment: Monitoring the kinetic process of lysozyme fibrillation by fluorescence; details: lysozyme 0.1 mM in glycine/NaCl pH 2.0, samples at different time points; FIG. 3D
lysozyme amyloid fibrils, sequence (P00698 19-147): as above
Protocol: (§2) The kinetic process of the formation of the lysozyme amyloid fibrils was monitored with QR. […] Three duplicate samples were made for each group of samples, and all of the above samples were determined on a fluorescence spectrometer for fluorescence intensities.

bovine insulin fibrils [4] = molecular target: T1, bovine insulin fibrils; experiment: QR replacement of a conventional probe bound to bovine insulin fibrils; assay type: binding; details: ThS or NR bound first, then QR added, FIGS. 5B-5D
Protocol: as §1
Since the binding constant of binding between QR and the bovine insulin is the largest, ThT, ThS, and NR were first used to bind to the bovine insulin fibrils for fluorescence determination, then QR was added for a replacement reaction.

[5] = molecular target: bovine insulin amyloid fibrils (Bos taurus, UniProt P01317); experiment: Monitoring the kinetic process of bovine insulin fibrillation by fluorescence; details: 0.5 mM insulin in NaCl/HCl pH 1.6, samples at different time points, QR 1 mM 0.05 mL; FIG. 3B
bovine insulin amyloid fibrils, sequence (P01317 25-54 limits assumed): as the sequence (P01317 25-54 limits assumed) above
Protocol: as §2, with “As the mechanism of amyloid fibril-related disease was still being explored, and the kinetic process of the amyloid fibrils might provide relevant information for the mechanism, the” for “The”, “bovine insulin” for “lysozyme”

| Compound | identification effect on bovine insulin fibrils (fluorescence intensity) (bovine insulin fibrils [1]) | fluorescence intensity of dye + insulin fibrils with increase of the illumination time (photostability) (insulin fibril) | identification of bovine insulin fibril (fluorescence intensity, dye comparison) (bovine insulin fibrils [1]; FIG. 5-A) | also measured |
| --- | --- | --- | --- | --- |
| CN(C)c1ccc(C=Cc2ccnc3ccccc23)cc1 [4-(4-dimethylaminostyryl)quinoline] | good identification effect |  |  |  |
| CCN(CC)c1ccc2nc3c4ccccc4c(=O)cc-3oc2c1 [NR, nile red, reference compound] |  | decreased significantly | could well identify the bovine insulin fibril |  |
| CC[n+]1c(/C=C/c2ccc(N(C)C)cc2)ccc2ccccc21 [QR, quinaldine red] | good identification effect | remained basically unchanged | could well identify the bovine insulin fibril | Raman signal between 900-1100 cm-1 (bovine insulin [2]): the signal for QR-insulin was disappeared; identification effect on lysozyme fibrils (fluorescence intensity) (lysozyme fibrils): good identification effect; binding constant of binding with the bovine insulin (comparison among dyes) (bovine insulin [3]): largest binding constant; linear range of fluorescence response to bovine insulin fibrils (bovine insulin fibrils [1]; fibrils diluted with PBS to 0-30 μm, fluorescence spectrometer, FIG. 1): 0-30 μm; fluorescence intensity compared with the other dyes (bovine insulin fibrils [1]; red light region, FIG. 5-A): certain advantages of the fluorescence intensity in the red light region; detection of the dynamic process of lysozyme fibrillation (lysozyme amyloid fibrils): could well detect the dynamic process of lysozyme fibrillation; replacement of ThT, ThS, NR bound to bovine insulin fibrils (bovine insulin fibrils [4]): replacement effect was obvious; detection of the dynamic process of bovine insulin fibrillation [5]: could well detect the dynamic process of bovine insulin fibrillation |

Further lines, with some results ahead:

| identification effect on bovine insulin fibrils (fluorescence intensity) (bovine insulin fibrils [1]) | fluorescence intensity of dye + insulin fibrils with increase of the illumination time (photostability) (insulin fibril) | Compound | identification of bovine insulin fibril (fluorescence intensity, dye comparison) (bovine insulin fibrils [1]; FIG. 5-A) | also measured |
| --- | --- | --- | --- | --- |
|  | decreased significantly | Cc1ccc2c(c1)sc(-c1ccc(N(C)C)cc1)[n+]2C.[Cl-] [ThT, Thioflavin T, reference compound] | could well identify the bovine insulin fibril |  |
|  | decreased significantly | Thioflavin S [ThS, reference compound] | could well identify the bovine insulin fibril |  |
